Test results taken from patent US7741496B2, “Ascorbic acid derivatives” (Corum Inc., priority 2008, dated 2010).

Test: Thermal Stability Test
Type: physicochemical
Details: 45° C. oven for 21 days; compared with ascorbic acid (FIG. 4)
Protocol: FIG. 4 is a diagram of Thermal Stability Test observed at 45° C. oven for 21 days.
Competitive with 3-O-ethyl-ascorbic acid and Azelaic acid, inventive samples have best effect in tyrsoinase inhibition.

CCOC1=C(O)C(=O)O[C@@H]1[C@@H](O)COC(=O)CCCCCCCC(=O)O [Formula (IV), 3-O-ethyl-ascorbyl-6-nonanedioate]
thermal stability: stable than ascorbic acid
